The subject of assay [1] is influenza A virus (A/PR/8/34). The assay can be described thus: microbe, parasite or virus in culture. Format: cell-based. The conditions noted are these: Influenza A virus, PR/8, MDCK, MDCK cells.
Assay [2] concerns influenza A virus (A/PR/8/34) minus-strand viral RNA. Put plainly: microbe, parasite or virus in culture. Format: cell-based. The conditions noted are these: Influenza A virus, PR/8.
A further assay deals with influenza infection. Put plainly: Influenza therapeutic mouse model (survival, body weight, whole body plethysmography). Format: in vivo. The following applies: Balb/c mice, dosing @ 48 hours post infection with 30 mg/kg BID X 10 days.

Like-named read-outs stand apart in the source and are kept apart here.

`O=C(O)[C@H]1C2CCC(CC2)[C@@H]1Nc1nc(-c2c[nH]c3ncc(F)cc23)c(F)cc1F` [Compound I-28, (2S,3S)-3-((3,5-difluoro-6-(5-fluoro-1H-pyrrolo[2,3-b]pyridin-3-yl)pyridin-2-yl)amino)bicyclo[2.2.2]octane-2-carboxylic acid]: the half-maximal inhibitory concentration (IC50) – broadly, the concentration at which inhibition is half-maximal – was under 3300 nM in assay [1] (72 h, mean IC50 (mean all), A/PR/8/34, 72 hours, read-out: Flu, MDCK IC50) and 5 nM in assay [1] (CPE assay, A/PR/8/34, read-out: IC50). Moreover, the concentration for a half-maximal effect (EC50) (usually the concentration at which the effect is half-maximal) in assay [2] (bDNA assay, read-out: EC50) is 5 nM; in assay [2] (mean EC50 (mean all), viral RNA by bDNA, read-out: bDNA EC50), under 3300 nM. In addition, the “Percent Weight Loss (Day 8)” value in the assay on influenza infection (post challenge day 8) came to 24.8%. Moreover, in the assay with influenza infection (scored for 21 days), the “Percent Survival” value was determined as 100%. The “WBP (Penh; Day 6)” value in the assay with influenza infection (whole body plethysmography) was determined as 1.84.

The values are drawn from patent US20130345218A1 (Vertex Pharmaceuticals Incorporated, priority 2010, published 2013).
